Consider 6 molecules from PMC5903342 (Oxidative Medicine and Cellular Longevity, 2018).

Like-named read-outs stand apart in the source and are kept apart here.

A short description of data set [1]: DPPH free radical scavenging assay. In kind it is biochemical. Conditions: absorbance at 517 nm. On the procedure: The free radical scavenging activity was measured by following microplate procedures as previously described. One hundred microliters of the sample dilutions with five concentration levels (varying from 0 to 2000 μM in DMSO) was added to two identical groups of wells in a 96-well microplate. The same volume of 0.1 mM DPPH-methanol solution was added to each well of one group (samples), and methanol ([…]) was added to the other group (blanks). The control was prepared by mixing the DPPH-methanol solution with the sample solvent or butylated hydroxytoluene (BHT). The solutions were mixed thoroughly, covered, and allowed to react in the dark at room temperature for 40 min. The absorbance was measured at 517 nm using a microplate reader (Quant, BioTek Instruments Inc.), and the scavenging activity was calculated from the absorbance values according to the following equation: […]. The antioxidant properties of the samples were expressed as half the maximal effective concentrations (EC50) obtained by interpolation from the linear regression analysis. BHT was used as the positive control.
Background: Loss of DPPH colour is used to gauge radical scavenging.

Data set [2] has as its system Salmonella enterica serovar typhimurium TA1535. Description: Antimutagenicity assay (Salmonella/microsome), strain TA1535. In kind it is cell-based. Conditions: atorvastatin 0 μM. From the text:
(§1) Salmonella enterica serovar typhimurium (S. typhimurium) strains TA100, TA1535, TA104, and TA102 from the authors' laboratory stock were used as described by Maron and Ames in the antimutagenicity assay.
(§2) We carried out the coexposure protocol of the antimutagenicity assay to investigate the potential of the compound to protect against alkylation-mediated genetic mutation in S. typhimurium TA100, TA102, TA104, and TA1535 strains according to Ajith and Soja. The test proceeded both in the absence and presence of a metabolic activation system (4% S9 mix, Aroclor preinduced, from MOLTOX Inc., USA). DMSO 1% served as the negative control. […] The mixtures were incubated in a shaker at 37°C (preincubation) under light protection. After a total of 60 min of cotreatment, the mixtures were added to and mixed with 2 mL top agar containing 0.05 mmol/L L-histidine and D-biotin for the S. typhimurium strains. Each of these was then spread on a minimal glucose agar (1.5% agar, Vogel-Bonner medium E, containing 2% glucose) plate. After the top agar solidified, the plates were incubated at 37°C for 60–72 h. Each tester strain was assayed in triplicate and repeated at least twice, and the number of revertant colonies was counted for each tester strain and treatment group. The counts of revertant colonies were obtained to build a dose-response curve and calculate the percentage of reduction.

Data set [3] concerns HepG2 cells. Description: Flow cytometry cell cycle analysis. In kind it is cell-based, Human. Conditions: 24 h. How it is done: The cells (1 × 10^5) were washed in PBS solution and centrifuged at 400 ×g for 5 min, and after, the cells were suspended in DNA staining solution (0.3% Triton X-100 and 50 μg/mL propidium iodide (PI) in a 43 mM citrate buffer), as previously described. After 45 minutes of treatment with 50 μg/mL ribonuclease A (Sigma, EUA), the PI fluorescence was determined (10,000 events per sample) in a Gallios flow cytometer (Beckman Coulter, USA). Data were analyzed by the Summit v4.3 software. The experiments were done at least three times, and statistical analysis was performed by one-way ANOVA followed by a Tukey's post hoc test.

In data set [4] the test system is HepG2 cells.
Description: (§3) Human hepatocellular carcinoma cells (HepG2) obtained from the American Type Culture Collection (Manassas, VA) were cultured in a minimum Eagle's medium (MEM, Gibco®, USA) containing 10% fetal bovine serum (FBS) plus 100 μg/mL streptomycin and 100 μg/mL penicillin at 37°C in a 5% CO2 atmosphere. Logarithmic-phase cells were used in all the experiments [9].
The HepG2 cells were seeded at a density of 1 × 10^5/mL into 24-well plates (1 mL/well). […] DMSO 1% was used as the negative control. After exposure to the compounds, the cells were incubated for 24 h more and the cytogenetic studies were carried out in triplicate and N = 3 [14]. In order to determine the mitotic index and the number of cells with micronuclei, the medium was replaced by a cold methanol-glacial acetic acid (3 : 1) fixative for 30 min and the cells were then rinsed with distilled water for 2 min and air dried. […] To determine the mitotic index and the number of cells with micronuclei, 2000 cells per well (6000 cells per concentration) were analyzed using fluorescence microscopy (Reichert Univar) with an excitation wavelength of 350 nm. […] Statistical differences between the groups were analyzed by a one-way ANOVA (p < 0.01) and Tukey's post hoc test.
Another data set is described as follows: in vitro. In kind it is cell-based. Conditions: human, HepG2, 24 h of exposure.
Data set [5] deals with Salmonella enterica serovar typhimurium TA104. Briefly: Antimutagenicity assay (Salmonella/microsome), strain TA104. In kind it is cell-based. Conditions: atorvastatin 0 μM.
Description: as §1, §2

Data set [6] concerns Salmonella enterica serovar typhimurium TA100. Description: Antimutagenicity assay (Salmonella/microsome), strain TA100 (co-, pre- and posttreatment). Conditions: atorvastatin 0 μM. In kind it is cell-based.
Data set [7] relates to Salmonella enterica serovar typhimurium TA102. Briefly: Antimutagenicity assay (Salmonella/microsome), strain TA102. In kind it is cell-based. Conditions: atorvastatin 0 μM.
Description: as §1, §2

Data set [8] concerns Salmonella enterica serovar typhimurium TA98 and TA100 strains. Conditions: sodium azide or 4-nitro-o-phenylenediamine, TA98 and TA100, absence of metabolic activation; cited from earlier work.
A further data set deals with CHO-K1 cells. Further details: method as in PMID 15988137. Conditions: statins from 10 μM to 100 μM; cited from earlier work.
[9] abbreviates: TA100, cotreatment protocol, +S9, CPA (150 μM) only.
[10] abbreviates: TA100, posttreatment protocol, +S9, CPA (150 μM) only.
Where [11] appears, read: TA100, pretreatment protocol, +S9, CPA (150 μM) only.
Setting [12] is: TA100, cotreatment protocol, −S9, MMS (100 μM) only.
[13] abbreviates: TA100, posttreatment protocol, −S9, MMS (100 μM) only.
The mark [14] stands for this setting: TA100, pretreatment protocol, −S9, MMS (100 μM) only.

Description for in vitro: as §3
Fresh HepG2 cells were seeded at a density of 1 × 10^5/well.

In general, EC50 refers to the concentration that produces a half-maximal response. A lower EC50 goes with a more potent agent. On to `Cc1cc(C(C)(C)C)c(O)c(C(C)(C)C)c1` [BHT, butylated hydroxytoluene], for which the EC50 in data set [1] was 83 ± 2 µM.
Consider `O=P1(N(CCCl)CCCl)NCCCO1` (stereo not drawn) [CPA, cyclophosphamide], for which the “His+ (revertant colonies)” value was 56 ± 6 in data set [2] (TA1535, +S9, CPA (150 μM) only); 1092 ± 85 in [5] (TA104, +S9, CPA (150 μM) only); 239 ± 30 in data set [6] (setting [9]); 278 ± 33 in [6] (setting [10]); 244 ± 8 in data set [6] (setting [11]); 588 ± 85 in [7] (TA102, +S9, CPA (150 μM) only). For the same molecule, the “MI (mutagenicity index)” value in [2] (TA1535, +S9, CPA (150 μM) only) stood at 2.80; in data set [5] (TA104, +S9, CPA (150 μM) only) it was 2.40; in [6] (setting [9]) it was 2.13; in data set [6] (setting [10]), 2.66; in [6] (setting [11]), 2.44; in data set [7] (TA102, +S9, CPA (150 μM) only) it was 2.1. Further, in the data set on HepG2 cells [3] (CPA only (no AVA)), the “sub-G1 percentage of cells” value is 17%. Also, the polyploid subpopulation in the data set with HepG2 cells [3] (exposure just to CPA) came out at 13%. Also, in the data set with HepG2 cells [4] (60.0 μM CPA only, 6 h and 24 h), the “Micronucleus formation, fold in comparison to the negative control” value was 5-6 fold. Moreover, the CC50 at 24 h in the data set “in vitro” (read-out: LC50) was determined as 98.7 ± 11.5 µM.
Regarding `CC[C@H](C)C(=O)O[C@H]1C[C@@H](C)C=C2C=C[C@H](C)[C@H](CC[C@@H]3C[C@@H](O)CC(=O)O3)[C@H]21` [LOVA, lovastatin], the “Antimutagenic (chemopreventive) effect against direct mutagens” value in data set [8] is “able to exert chemopreventive effects”.
On to `COS(C)(=O)=O` [MMS, methyl methanesulfonate], for which the “His+ (revertant colonies)” value in data set [2] (TA1535, −S9, MMS (100 μM) only) turned out to be 71 ± 5; in [5] (TA104, −S9, MMS (100 μM) only), 897 ± 55; in [6] (setting [12]) it was 212 ± 11; in [6] (setting [13]), 264 ± 31; in data set [6] (setting [14]), 230 ± 23; in [7] (TA102, −S9, MMS (100 μM) only), 578 ± 55. Besides, the “MI (mutagenicity index)” value in data set [2] (TA1535, −S9, MMS (100 μM) only) was determined as 2.84; in data set [5] (TA104, −S9, MMS (100 μM) only), 2.24; in data set [6] (setting [12]) it was 2.14; in data set [6] (setting [13]) it was 2.09; in data set [6] (setting [14]), 2.26; in data set [7] (TA102, −S9, MMS (100 μM) only) it was 2.31. The polyploid subpopulation in the data set on HepG2 cells [3] (human, 20 μM) amounted to 15%. In addition, the “sub-G1 percentage of cells” value in the data set with HepG2 cells [3] (human, 20 μM) was found to be 19%. Further, the “Micronucleus formation, fold in comparison to the negative control” value in the data set with HepG2 cells [4] (only MMS-exposed cells (10.0 μM MMS), 6 and 24 h) was 6-7 fold. Moreover, the CC50 in “in vitro” (read-out: LC50 (the source's name)) was 18.7 ± 6.67 µM.
With `CC(C)n1c(/C=C/C(O)CC(O)CC(=O)O)c(-c2ccc(F)cc2)c2ccccc21` (stereo not drawn) [fluvastatin], in the data set on CHO-K1 cells, the “Micronucleus formation after exposure to bleomycin” value was “reduced micronucleus formation”.
Turning to `CC[C@H](C)C(=O)O[C@H]1C[C@H](O)C=C2C=C[C@H](C)[C@H](CC[C@@H](O)C[C@@H](O)CC(=O)O)[C@H]21` [pravastatin], the “Micronucleus formation after exposure to bleomycin” value in the data set on CHO-K1 cells is recorded as “reduced micronucleus formation”.
